We go through 48 compounds from patent US20050026968A1, “Heterocyclic amides with anti-tuberculosis activity” (priority 2003, published 2005).

Structures are written as SMILES. In brackets after ≈: the same amount, converted by molar mass.

For one test, the system named is M. tuberculosis H37Ra. Put plainly: MIC against M. tuberculosis H37Ra, micro broth dilution in microtiter plates.
Conditions: not given
On the technique in general: Dilution methods test growth across graded concentrations, often in twofold steps.
Turning to `CN(C(=O)c1ccc([N+](=O)[O-])o1)c1ccccc1` [Compound 41], the MIC was determined as 3.1 µg/mL (≈ 12.6 µM).

The test is the same for the next values; noted with them: Mycobacterium tuberculosis, H37RA.
In turn, `NNC(=O)c1ccncc1` [Isoniazid, isoniazid, reference compound] came in with an MIC90 of 0.05 µg/mL (≈ 0.365 µM). In turn, `O=C(NCc1ccc(N2CCN(Cc3ccccc3)CC2)cc1)c1ccc([N+](=O)[O-])o1` [Compound 66, 5-Nitro-furan-2-carboxy1ic acid 4-(4-benzyl-piperazin-1-yl)-benzylamide] yielded an MIC of 0.006 µg/mL (≈ 0.0143 µM). In turn, `CN1CCN(C(=O)c2ccc([N+](=O)[O-])o2)CC1` [Compound 76] registered an MIC of 37.5 µg/mL (≈ 157 µM).

The test is the same for the next values; noted with them: Mycobacterium tuberculosis, H37RA, 168 h, read-out: TB MIC, Table 1; M. tuberculosis H37Ra, 7 days, MIC90 (>90% inhibition of growth).
Turning to `COc1cccc(NC(=O)c2ccc(S(=O)(=O)O)o2)c1` [Compound 34, 5-(3-Methoxy-phenylcarbamoyl)-furan-2-sulfonic acid], the MIC is 200 µg/mL (≈ 673 µM).

For the compound `CCOC(=O)c1ccc(C(=O)Nc2cccc(OC)c2)o1` [Compound 40, 5-(3-Methoxy-phenylcarbamoyl)-furan-2-carboxylic acid ethyl ester], the MIC was 400 µg/mL (≈ 1380 µM).

Regarding `COc1ccc(CNC(=O)c2ccc([N+](=O)[O-])o2)cc1` [Compound 20, 5-Nitro-furan-2-carboxylic acid 4-methoxy-benzylamide], the MIC is 0.1 µg/mL (≈ 0.362 µM). Consider `O=C(NC12CC3CC(CC(C3)C1)C2)c1ccc([N+](=O)[O-])o1` [Compound 16, 5-Nitro-furan-2-carboxylic acid adamantan-1-ylamide], for which the MIC came to 3.1 µg/mL (≈ 10.7 µM). For the compound `O=C(NCc1ccccc1Cl)c1ccc([N+](=O)[O-])o1` [Compound 21, 5-Nitro-furan-2-carboxylic acid 2-chloro-benzylamide], the minimum inhibitory concentration (MIC) was 1.6 µg/mL (≈ 5.7 µM). In the case of `COc1cccc(NC(=O)c2ccc([S+]([O-])c3ccccc3)o2)c1` (stereo not drawn) [Compound 38, 5-Benzenesulfinyl-furan-2-carboxylic acid(3-methoxy-phenyl)-amide], the minimal inhibitory concentration (MIC) is 6.25 µg/mL (≈ 18.3 µM).

`COc1ccccc1CNC(=O)c1ccc([N+](=O)[O-])o1` [Compound 52, 5-nitro-furan-2-carboxylic acid 2-methoxy-benzylamide]: the MIC worked out at 1.6 µg/mL (≈ 5.79 µM). Take `COc1cc(CNC(=O)c2ccc([N+](=O)[O-])o2)cc(OC)c1OC` [Compound 24, 5-Nitro-furan-2-carboxylic acid 3,4,5-trimethoxy-benzylamide]: the MIC was found to be 0.8 µg/mL (≈ 2.38 µM). With `O=C(NC1CCc2ccccc21)c1ccc([N+](=O)[O-])o1` (stereo not drawn) [Compound 26, 5-Nitro-furan-2-carboxylic acid indan-1-ylamide], the minimal inhibitory concentration (MIC) is 3.1 µg/mL (≈ 11.4 µM).

With `COc1ccc(CNC(=O)c2ccc(Br)o2)cc1` [Compound 32, 5-Bromo-furan-2-carboxylic acid 4-methoxy-benzylamide], the MIC came out at 200 µg/mL (≈ 645 µM). The same measure, in the same setting: the same measure for `O=C(Nc1cnccn1)c1ccc([N+](=O)[O-])o1` [Compound 48, 5-Nitro-furan-2-carboxylic acid pyrazin-2-ylamide]: 6.25 µg/mL (≈ 26.7 µM). `O=C(Nc1ccccc1)c1ccc([N+](=O)[O-])o1` [Compound 17, 5-Nitro-furan-2-carboxylic acid phenylamide]: the MIC amounted to 0.8 µg/mL (≈ 3.45 µM). In the case of `COc1cccc(CNC(=O)c2ccc([N+](=O)[O-])o2)c1OC` [Compound 53, 5-nitro-furan-2-carboxylic acid 2,3-dimethoxy-benzylamide], the MIC was found to be 1.2 µg/mL (≈ 3.92 µM).

Still in this test, the particulars now being: Mycobacterium tuberculosis, H37RA, Table 4; M. tuberculosis H37Ra, MIC90.
`CN1CCN(c2cccc(NC(=O)c3ccc([N+](=O)[O-])o3)c2)CC1` [Compound 60, 5-Nitro-furan-2-carboxylic acid[3-(4-methyl-piperazin-1-yl)-phenyl]-amide] returned an MIC of 12.5 µg/mL (≈ 37.8 µM). The same measure, in the same setting: the same measure for `O=C(NCc1ccc(N2CCC(Cc3ccccc3)CC2)cc1)c1ccc([N+](=O)[O-])o1` [Compound 67, 5-Nitro-furan-2-carboxylic acid 4-(4-benzyl-piperidin-1-yl)-benzylamide]: less than 0.1 µg/mL; for `O=C(Nc1cccc(N2CCOCC2)c1)c1ccc([N+](=O)[O-])o1` [Compound 59, 5-Nitro-furan-2-carboxylic acid(3-morpholin-4-yl-phenyl)-amide]: 3.1 µg/mL (≈ 9.77 µM). Same read-out and setting: the same measure for `O=C(NCc1ccc(N2CCN(Cc3ccccc3)CC2)cc1)c1ccc([N+](=O)[O-])o1` [Compound 66, 5-Nitro-furan-2-carboxy1ic acid 4-(4-benzyl-piperazin-1-yl)-benzylamide]: 0.0062 µg/mL (≈ 0.0147 µM); for `O=C(Nc1cccc(N2CCC(Cc3ccccc3)CC2)c1)c1ccc([N+](=O)[O-])o1` [Compound 62, 5-Nitro-furan-2-carboxylic acid[3-(4-benzyl-piperidin-1-yl)-phenyl]-amide]: 12.5 µg/mL (≈ 30.8 µM); for `O=C(NCc1ccc(N2CCOCC2)cc1)c1ccc([N+](=O)[O-])o1` [Compound 64, 5-Nitro-furan-2-carboxylic acid 4-morpholin-4-yl-benzylamide]: 0.1 µg/mL (≈ 0.302 µM). Same read-out and setting: the same measure for `O=C(Nc1ccc(N2CCC(Cc3ccccc3)CC2)cc1)c1ccc([N+](=O)[O-])o1` [Compound 57, 5-Nitro-furan-2-carboxylic acid[4-(4-benzyl-piperidin-1-y1)-phenyl]-amide]: 3.1 µg/mL (≈ 7.65 µM); for `O=C(NCc1cccc(N2CCC(Cc3ccccc3)CC2)c1)c1ccc([N+](=O)[O-])o1` [Compound 70, 5-Nitro-furan-2-carboxylic acid 3-(4-benzyl-piperidin-1-yl)-benzylamide]: 0.0062 µg/mL (≈ 0.0148 µM). For the compound `O=C(Nc1ccc(N2CCOCC2)cc1)c1ccc([N+](=O)[O-])o1` [Compound 54, 5-Nitro-furan-2-carboxylic acid(4-morpholin-4-yl-phenyl)-amide], it took 1.6 µg/mL (≈ 5.04 µM) to inhibit growth (MIC). In the case of `O=C(Nc1cccc(N2CCN(c3ccccn3)CC2)c1)c1ccc([N+](=O)[O-])o1` [Compound 63, 5-Nitro-furan-2-carboxylic acid[3-(4-pyridin-2-yl-piperazin-1-yl)-phenyl]-amide], 1.6 µg/mL (≈ 4.07 µM) was the least that counted as inhibitory (MIC). `O=C(Nc1ccc(N2CCN(c3ccccn3)CC2)cc1)c1ccc([N+](=O)[O-])o1` [Compound 58, 5-Nitro-furan-2-carboxylic acid. [4-(4-pyridin-2-yl-piperazin-1-yl)-phenyl]-amide] showed an MIC of 0.4 to 0.8 µg/mL (≈ 1.02 to 2.03 µM).

Still in this test, the particulars now being: Mycobacterium tuberculosis, H37RA, Table 5; M. tuberculosis H37Ra, MIC90.
`CCN(CC)c1ccc(CN2CCN(C(=O)c3ccc([N+](=O)[O-])o3)CC2)cc1` [Compound 88] came in with an MIC of less than 0.1 µg/mL. On the same count and under the same terms, as for `COc1cc2c(cc1OC)CN(C(=O)c1ccc([N+](=O)[O-])o1)CC2` [Compound 75], the figure is 0.15 µg/mL (≈ 0.451 µM); as for `COc1ccc(CN2CCN(C(=O)c3ccc([N+](=O)[O-])o3)CC2)cc1` [Compound 85], less than 0.1 µg/mL. Same read-out and setting: as for `CC(C)NC(=O)CN1CCN(C(=O)c2ccc([N+](=O)[O-])o2)CC1` [Compound 78], the figure is 6.25 µg/mL (≈ 19.3 µM).

For `O=C(c1ccc([N+](=O)[O-])o1)N1CCN(C2CCCCC2)CC1` [Compound 80], the minimum inhibitory concentration (MIC) was 6.25 µg/mL (≈ 20.3 µM). Consider `O=C(c1ccc([N+](=O)[O-])o1)N1CCN(Cc2ccccc2)CC1` [Compound 73], for which inhibition of growth (MIC) required 0.59 µg/mL (≈ 1.87 µM). Regarding `O=C(c1ccc([N+](=O)[O-])o1)N1CCN(Cc2cccc(O)c2)CC1` [Compound 83], the MIC stood at 0.8 µg/mL (≈ 2.41 µM). `O=C(c1ccc([N+](=O)[O-])o1)N1CCN(Cc2ccc(O)cc2)CC1` [Compound 84] came in with an MIC of 1.56 µg/mL (≈ 4.71 µM). `O=C(c1ccc([N+](=O)[O-])o1)N1CCN(Cc2cccc(OCc3ccccc3)c2)CC1` [Compound 87] showed an MIC of 1.56 µg/mL (≈ 3.7 µM). Still for that read-out and setting: as for `O=C(c1ccc([N+](=O)[O-])o1)N1CCC(Cc2ccccc2)CC1` [Compound 72], the figure is 0.29 µg/mL (≈ 0.923 µM). As for `CN1CCN(C(=O)c2ccc([N+](=O)[O-])o2)CC1` [Compound 76], the MIC is 37.5 µg/mL (≈ 157 µM).

`COc1ccccc1N1CCN(C(=O)c2ccc([N+](=O)[O-])o2)CC1` [Compound 82] came in with an MIC of 1.56 µg/mL (≈ 4.71 µM).

Still in this test, the particulars now being: Mycobacterium tuberculosis, H37RA, Table 6; M. tuberculosis H37Ra, MIC90.
Take `O=C(NCc1ccc(N2CCC(Cc3ccccc3)CC2)c(F)c1)c1ccc([N+](=O)[O-])o1` [Compound 103, 5-Nitro-furan-2-carboxylic acid 4-(4-benzyl-piperidin-1-yl)-3-fluoro-benzylamide]: the MIC worked out at 0.0125 µg/mL (≈ 0.0286 µM). On the same count and under the same terms, as for `O=C(NCc1ccc(N2CCN(CC3CC3)CC2)cc1)c1ccc([N+](=O)[O-])o1` [Compound 98, 5-Nitro-furan-2-carboxylic acid 4-(4-cyclopropylmethyl-piperazin-1-yl)-benzylamide], the figure is 0.05 µg/mL (≈ 0.13 µM); as for `CCOC(=O)N1CCN(c2ccc(CNC(=O)c3ccc([N+](=O)[O-])o3)cc2)CC1` [Compound 104, 4-(4-{[(5-Nitro-furan-2-carbonyl)-amino]-methyl}-phenyl)-piperazine-1-carboxylic acid ethyl ester], 0.004 µg/mL (≈ 0.00994 µM); as for `O=C(NCc1ccc(N2CCSCC2)c(F)c1)c1ccc([N+](=O)[O-])o1` [Compound 101, 5-Nitro-furan-2-carboxylic acid 3-fluoro-4-thiomorpholin-4-yl-benzylamide], 0.2 µg/mL (≈ 0.547 µM). In the case of `CC(C)(C)OC(=O)N1CCN(c2ccc(CNC(=O)c3ccc([N+](=O)[O-])o3)cc2)CC1` [Compound 96, 4-(4-{[(5-Nitro-furan-2-carbonyl)-amino]-methyl}-phenyl)-piperazine-1-carboxylic acid tert-butyl ester], the lowest concentration to inhibit growth (MIC) was 0.0002 µg/mL (≈ 0.000465 µM).

Regarding `O=C(NCc1ccc(N2CCNCC2)cc1)c1ccc([N+](=O)[O-])o1` [Compound 97, 5-Nitro-furan-2-carboxylic acid 4-piperazin-1-yl-benzylamide], it took 0.8 µg/mL (≈ 2.42 µM) to inhibit growth (MIC). The compound `O=C(NCc1ccc(N2CCN(Cc3ccccc3)CC2)c(F)c1)c1ccc([N+](=O)[O-])o1` [Compound 99, 5-Nitro-furan-2-carboxylic acid 4-(4-benzyl-piperazin-1-yl)-3-fluoro-benzylamide] registered an MIC of 0.0125 µg/mL (≈ 0.0285 µM). Same read-out and setting: the same measure for `CCCNC(=O)N1CCN(c2ccc(CNC(=O)c3ccc([N+](=O)[O-])o3)cc2)CC1` [Compound 105, 4-(4-{[(5-Nitro-furan-2-carbonyl)-amino]-methyl}-phenyl)-piperazine-1-carboxylic acid propylamide]: 0.0125 µg/mL (≈ 0.0301 µM). On the same count and under the same terms, as for `NC1CCN(c2ccc(CNC(=O)c3ccc([N+](=O)[O-])o3)cc2)C1` (stereo not drawn) [Compound 95, 5-Nitro-furan-2-carboxylic acid 4-(3-amino-pyrrolidin-1-yl)-benzylamide], the figure is 0.8 µg/mL (≈ 2.42 µM).

Still in this test, the particulars now being: Table 5; M. tuberculosis H37Ra, MIC90.
Take `O=C(c1ccc([N+](=O)[O-])o1)N1CCN(c2ncccn2)CC1` [Compound 77]: the MIC amounted to 0.025 µg/mL (≈ 0.0824 µM).

Staying with this test, now noted: against H37Ra; in words.
Regarding `O=C(NCc1ccc(N2CCN(Cc3ccccc3)CC2)cc1)c1ccc([N+](=O)[O-])o1` [Compound 66, 5-Nitro-furan-2-carboxy1ic acid 4-(4-benzyl-piperazin-1-yl)-benzylamide], the “MIC activity compared with classical TB drugs (FIG. 1)” value is “more active than isoniazid”.

One may read the MIC as the lowest concentration that inhibits growth of the organism. The term MIC90 denotes an inhibitory concentration at the 90% level, which refers to growth in some studies and to a panel of isolates in others.
